Assay: gradient 5% acetonitrile 3 min, to 50% in 2 min, to 85% in 15 min, held 3 min, 100 µL/min
Details: column: Zorbax Extend-C18 2.1 x 50 mm; eluents: water / acetonitrile, 0.1% formic acid
In short: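 The system's dead and dwell volumes were 40 μL and 900 μL, with a Zorbax Extend-C18 column (2.1 × 50 mm, 1.8 μm) run at 100 μL/min in water and acetonitrile containing 0.1% formic acid each. Pure standards were analyzed in mixtures of ~100 molecules by HPLC–quadrupole time-of-flight mass spectrometry in positive and negative ionization mode. Retention time was assigned from computationally picked, manually inspected adduct peaks.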

| Compound | RP-LC retention time [s] |
| --- | --- |
| O=C(Cc1ccc(F)cc1)N[C@H](Cc1ccccc1)C(=O)NCc1cscn1 | 741 |
| CCc1c(C(=O)O)nnn1-c1ccc(C(F)(F)F)cc1 | 800 |
| COc1ccc(-c2cc3n(n2)CCCN(C(=O)NCc2ccccc2)C3)cc1OC | 929 |
| COc1ccc(Nc2nc(C(=O)N3c4ccccc4CC3C)cs2)cc1OC (stereo not given) | 854 |
| CCn1c(C(=O)Nc2cc(Cl)ccc2C)cc2sc(Cl)cc21 | 1310 |
| Cc1occc1C(=O)N1CCc2nn(CC3CC3)c(=O)n2CC1 | 646 |
| Cc1ccc(NC(=O)Nc2nccn(-c3ccc(Br)cc3)c2=O)cc1F | 1080 |
| CN(C1CCc2nn(CC3CC3)c(=O)n2CC1)S(=O)(=O)c1ccccc1C(F)(F)F (stereo not given) | 831 |
| COc1cccc(NC(=O)Cn2c(C)nc3c(sc4nc(-c5ccccc5)ccc43)c2=O)c1 | 1090 |
| CCn1cc(C)c(C(=O)O)c1CC(=O)Nc1ccc(Cl)cn1 | 835 |
| COc1ccc(NC(=O)c2cc3c(=O)n(CC(C)C)ccc3n2C)cc1Cl | 895 |
| O=C1CCN(C2OC(CO)C(O)C2O)C(=O)N1 (stereo not given) | 1040 |
| CC(C)N1CCn2cc(S(=O)(=O)Nc3ccc(Cl)cc3)cc2C1=O | 805 |
| Cc1cc(-c2csc(S(=O)(=O)NCC3CCN(Cc4ccc(Cl)cc4)CC3)c2)on1 | 733 |
| COc1cc(-c2nc3ncccn3c2Nc2ccc(C)c(C)c2)ccc1O | 683 |
| CCc1nnc(-c2ccc3ccn(CC(=O)NCc4ccc(OC)c(OC)c4)c3c2)o1 | 745 |
| Cc1ccc(C)c(-c2coc(-c3ccc(NC(=O)CC(C)C)cc3)n2)c1 | 1260 |
| Cc1cc(C)n(-c2ncnc3c2cnn3-c2ccc(F)cc2)n1 | 1420 |
| Cc1cc(C)cc(-n2ccn(Cc3nc(-c4ccc(Cl)c(F)c4)no3)c(=O)c2=O)c1 | 976 |
| O=C(c1nnc(-c2ccc(S(=O)(=O)N3CCCC3)cc2)o1)N1CCc2ccccc2C1 | 980 |
| CCN1CCn2cc(S(=O)(=O)Nc3cc(C)ccc3F)cc2C1=O | 751 |

| Compound | RP-LC retention time [s] |
| --- | --- |
| COc1ccc(OC)c(NC(=O)c2cc3c(=O)n(CC(C)C)c4ccccc4n3n2)c1 | 1240 |
| COc1ccc(Nc2c(-c3nc(C)no3)cnc3nc(C)ccc23)cc1Cl | 736 |
| O=C(NCCCNC(=O)NC1CCCCC1)NC1CCCCC1 | 673 |
| COC(=O)CC(=O)Nc1cc2c(cc1N1CCCC1)n(C)c(=O)n2C | 565 |
| O=C(Cc1ccc(NC(=O)CCS(=O)(=O)c2ccccc2)cc1)NCc1cccs1 | 701 |
| O=C(CN1C(=O)CN(C(=O)NCc2ccccc2)c2ccccc21)NCCc1ccco1 | 803 |
| Cc1cccc(Nc2c(-c3ccccc3)nc3cnccn23)c1C | 981 |
| Cc1ccc(-c2coc(-c3ccc(NC(=O)NCc4cccc(F)c4)cc3)n2)c(C)c1 | 1200 |
| O=C(O)CCC1CCN(S(=O)(=O)c2ccccc2F)CC1 | 751 |
| COc1ccc(N2CCN(S(=O)(=O)c3cc(-c4cc(C(F)(F)F)[nH]n4)sc3C)CC2)cc1 | 1090 |
| CCc1nnc(-c2cc(C)n(CC(=O)Nc3ccc(Cl)cc3F)c2C)o1 | 866 |
| COc1ccc(-c2ccc(=O)n(Cc3nc(-c4ccc(Cl)c(F)c4)no3)n2)cc1 | 1080 |
| CN(C)c1ccc(CNC(=O)CN2c3ccccc3NC3=C(C(=O)CCC3)C2c2ccco2)cc1 (stereo not given) | 628 |
| CCOC(=O)c1c(S(=O)(=O)N2CCC(C(=O)Nc3cccc(OC)c3)CC2)c(C)n(CC)c1C | 891 |
| CC1CCN(S(=O)(=O)N2CCC(C(=O)N3CCCC(Cc4nncn4CC4CC4)C3)CC2)CC1 (stereo not given) | 678 |
| COc1ccc(C2CC(=O)N(c3ccc(F)c(Cl)c3)C(=O)C2)cc1OC | 915 |
| Cc1cccc(NC(=O)NCC(c2cccnc2)c2c[nH]c3ccccc23)c1 (stereo not given) | 673 |
| CC(C)CC(=O)N1CCCCCCNC(=O)[C@@H]2CCCC[C@@H]21 | 833 |
| CCOc1ccc(NC(=O)CN2C(=O)c3ccccc3C2=O)c([N+](=O)[O-])c1 | 839 |
| Cc1ccc2cccc(OC(=O)N3CCCCCC3)c2n1 | 789 |
| CCc1noc(-c2cccn2Cc2ccc(OC)c(F)c2)n1 | 1100 |

Results, then the compound that gave them:

| RP-LC retention time [s] | Compound |
| --- | --- |
| 969 | COc1cccc(CNC(=O)C2(C)CCCN(C(=O)Nc3ccc(Br)cc3)C2)c1 (stereo not given) |
| 1150 | CCc1ccc(Oc2cc(N3CCC(C(=O)NCCC4=CCCCC4)CC3)ncn2)cc1 |
| 789 | CC(C)C(=O)N1CCCc2ccc(NC(=O)c3ccco3)cc21 |
| 1270 | CCCN1C(=O)COc2ccc(-c3noc(-c4ccc(F)c(F)c4)n3)cc21 |
| 1430 | CCOc1cccc(C(=O)Nc2nc(-c3ccc(C(C)(C)C)cc3)cs2)c1 |
| 556 | CN(C)C(=O)c1cc2c(s1)CCC(C(=O)NCc1ccncc1)C2 (stereo not given) |
| 1140 | CC(C)c1ccc(-n2ccnc(NC(=O)Nc3cccc(F)c3)c2=O)cc1 |
| 745 | Cc1ccc(CN2CCCC(c3nncn3Cc3ccccc3)C2)o1 (stereo not given) |
| 899 | CCC(C)NC(=O)c1cnn(-c2ccc(-c3nc(C4CC4)no3)cn2)c1C (stereo not given) |
| 714 | Cc1sc(NC(=O)c2ccncc2)nc1-c1ccc2c(c1)NC(=O)C(C)O2 (stereo not given) |
| 644 | O=C(CSc1nccn1Cc1ccc(Cl)cc1)NCCc1ccccc1 |
| 606 | O=C(N[C@@H]1CN(c2ncccn2)C[C@H]1CO)c1ccc2c(c1)OCO2 |
| 529 | COCCCNC(=O)C1CCCN(c2nnc3ccccn23)C1 (stereo not given) |
| 683 | Cc1ccc(CN2CC(c3ncc(C)n3Cc3cccnc3)C2)s1 |
| 668 | Cc1c(Cl)cccc1NC(=O)NC1CCN(c2cc(N3CCCC3)cnn2)C1 (stereo not given) |
| 896 | CCN(CC)C(=O)Oc1ccc(C(=O)Nc2cccc3ccccc23)cc1 |
| 626 | CCN1CCN(CCNC(=O)c2cc(-c3ccc(C)cc3)cn2C)CC1 |
| 1100 | COC(=O)c1sccc1NC(=O)Cn1cc(-c2nc(-c3ccc(Cl)cc3)no2)ccc1=O |
| 704 | COCCCNC(=O)C1c2ccccc2C(=O)N1Cc1ccccc1 (stereo not given) |
| 806 | CN1C(=O)c2cccnc2Sc2cc(C(=O)NCc3ccccc3Cl)ccc21 |
| 869 | O=C(Cc1csc(NC(=O)c2ccccc2)n1)Nc1ccc(F)c(Cl)c1 |
| 791 | CCCn1cc(CCNC(=O)c2ccc(F)c(F)c2)c2cccnc21 |
| 1050 | CCc1nc2cc(-c3noc(Cc4ccccc4F)n3)ccc2o1 |
| 854 | O=C(NCc1ccc(F)cc1)c1ccc(-c2ccsc2)nc1 |

| RP-LC retention time [s] | Compound |
| --- | --- |
| 995 | Cc1cccc(Nc2nc(C(=O)NCCC3=CCCCC3)nc3ccccc23)c1 |
| 857 | CC(C)C(=O)N1CC(c2nc(-c3ccc(F)cc3)no2)C2(CCOCC2)C1 (stereo not given) |
| 1000 | CCc1nc(-c2cccc(-c3noc(CNC(=O)Cc4ccccc4)n3)c2)cs1 |
| 892 | Cc1ccc(N2C(=O)CN(S(C)(=O)=O)CC2(C)C(=O)NC2CCCCC2)cc1Cl (stereo not given) |
| 818 | Cc1cccc(NC(=O)C2CCN(S(=O)(=O)c3ccc4c(c3)NC(=O)C(C)O4)CC2)c1C (stereo not given) |
| 936 | O=C(Nc1cnc(-c2ccccc2)nc1)C1CCCC1 |
| 790 | CCC(=O)N1CCc2cc(N3CC(C(=O)Nc4cc(C)ccc4C)CC3=O)ccc21 (stereo not given) |
| 570 | CCCNc1cc(N2CCC(CCC(=O)N3CCN(c4ccccn4)CC3)CC2)ncn1 |
| 1020 | Brc1cccc(-c2noc(CSc3nccn3-c3ccccc3)n2)c1 |
| 649 | CCOc1ccc(C(C)NC(=O)c2cc(NC(C)=O)cc3nc(C)ccc23)cc1 (stereo not given) |
| 963 | COc1ccc(-c2csc(NC(=O)c3ccc4c(c3)OCCO4)n2)cc1OC |
| 615 | Cc1nn(C(C)C(=O)NCCCN2CCOCC2)c(=O)c2c(C)n(-c3ccccc3)nc12 (stereo not given) |
| 753 | CN(C)C(=O)c1ccc2c(c1)N(CC(=O)Nc1ccc(Cl)cc1)C(=O)CS2 |
| 988 | Cn1c(C(=O)N2CCCc3ccccc32)cc2c(=O)oc3ccccc3c21 |
| 830 | O=C(NCc1nc(-c2ccc(-c3csc(C4CC4)n3)cc2)no1)c1ccco1 |
| 546 | CN1CCCC1c1nc(C2CN(C(=O)c3cnccn3)C2)no1 (stereo not given) |
| 871 | Cc1ccc(NC(=O)Cn2nc3c(Oc4cc(C)cc(C)c4)nccn3c2=O)cc1 |
| 848 | Cc1cccc(-c2nc(N3CCCCCC3)c3ccccc3n2)c1 |
| 638 | CCOC(=O)c1cccc(NC(=O)CCc2ccc3nc(CC)[nH]c3c2)c1 |
| 860 | COc1ccc(C2Cn3nnc(C(=O)N4CCC(C(=O)NC5CCCCC5)CC4)c3CO2)cc1 (stereo not given) |
| 956 | O=C(C1=NN(Cc2cc(F)cc(F)c2)c2ccccc2S1(=O)=O)N1CCCCC1 |
| 1060 | CCOC(=O)c1noc2ncnc(NCCc3ccc(C)cc3)c12 |
| 864 | O=C(Nc1ccc(OCc2nnc(-c3ccccc3)o2)cc1)c1ccsc1 |
| 564 | Cc1ccc2nc(C(=O)NCCN(C)C3CCCCC3)cn2c1 |
